Measurements published in ChEMBL document CHEMBL5338711, “Designing and development of phthalimides as potent anti-tubulin hybrid molecules against malaria” (Eur J Med Chem, 2022).
The source made the active and inactive calls. The calls are words filed in the database; no cut-off is given here.

Tests used:
Plasmodium falciparum [1] = assay: Antimalarial activity against […] infected in human RBC assessed as inhibition of plasmodial growth at 1 uM by SYBR green dye based spectrofluorometric analysis relative to control; type: functional; conditions: 3D7, Erythrocyte
Plasmodium falciparum [2] = assay: Antimalarial activity against […] infected in human RBC assessed as inhibition of plasmodial growth at 10 uM by SYBR green dye based spectrofluorometric analysis relative to control; type: functional; conditions: 3D7, Erythrocyte
[3] = Cytotoxicity against human HepG2 cells; type: toxicity, cell-based
Plasmodium falciparum [4] = assay: Antimalarial activity against chloroquine-sensitive synchronized late stage trophozoite Plasmodium falciparum 3D7 infected in human RBC assessed as inhibition of plasmodial growth by giemsa staining based analysis; type: functional, organism-based; conditions: 3D7, Erythrocyte
Plasmodium falciparum [5] = assay: Antimalarial activity against chloroquine-resistant synchronized late stage trophozoite Plasmodium falciparum RKL-9 infected in human RBC assessed as inhibition of plasmodial growth by giemsa staining based analysis; type: functional, organism-based; conditions: RKL-9, Erythrocyte
Plasmodium falciparum [6] = assay: Antimalarial activity against chloroquine-resistant Plasmodium falciparum RKL-9 infected in human RBC assessed as reduction of plasmodial growth by SYBR green dye based spectrofluorometric analysis; type: functional, organism-based
Erythrocyte = assay: Hemolytic activity in human RBC assessed as hemolysis upto 5 uM incubated for 2 hrs; type: toxicity, cell-based
[7] = Therapeutic index, ratio of CC50 for human HepG2 cells to IC50 for chloroquine-sensitive synchronized late stage trophozoite Plasmodium falciparum 3D7 infected in human RBC; type: toxicity; conditions: read-out: TI
[8] = Cytotoxicity against […] cell upto 500 uM; type: toxicity, cell-based; conditions: human
[9] = Therapeutic index, ratio of cytotoxicity against […] cells to IC50 for chloroquine-sensitive synchronized late stage trophozoite Plasmodium falciparum 3D7 infected in human RBC; type: toxicity, cell-based; conditions: read-out: TI
Plasmodium falciparum [10] = assay: Antiplasmodial activity against synchronized ring stage Plasmodium falciparum 3D7 infected in human RBC assessed as failure of egress by measuring accumulation at late schizont stage at IC50 concentration measured after 60 hrs by giemsa staining based light microscopic analysis; type: functional, organism-based
Plasmodium falciparum [11] = assay: Induction of mitochondrial membrane depolarization in trophozoite stage Plasmodium falciparum 3D7 infected in human RBC assessed as increase in green fluorescence at IC50 concentration incubated for 3 hrs by JC-1 dye based fluorescence microscopic analysis; type: functional, organism-based
Plasmodium falciparum [12] = assay: Induction of mitochondrial membrane depolarization in trophozoite stage Plasmodium falciparum 3D7 infected in human RBC assessed as decrease in red to green fluorescence ratio at IC50 concentration incubated for 3 hrs by JC-1 dye based fluorescence microscopic analysis; type: functional, organism-based
Plasmodium falciparum [13] = assay: Induction of mitochondrial membrane depolarization in trophozoite stage Plasmodium falciparum 3D7 infected in human RBC assessed as red to green fluorescence ratio at IC50 concentration incubated for 3 hrs by JC-1 dye based spectrofluorometric analysis (reference value: 6.96+/-0.94); type: functional
Plasmodium falciparum [14] = assay: Binding affinity to recombinant N-terminal 6His tagged Plasmodium falciparum alpha-1 tubulin expressed in Escherichia coli BL21 assessed as dissociation constant at 0.78 to 75 uM by SPR analysis; conditions: dose 0.78-75 µM
Plasmodium falciparum [15] = assay: Binding affinity to recombinant N-terminal 6His tagged Plasmodium falciparum beta-tubulin expressed in Escherichia coli BL21 at 0.78 to 75 uM by SPR analysis; conditions: dose 0.78-75 µM
Plasmodium falciparum [16] = assay: Binding affinity to recombinant N-terminal 6His tagged Plasmodium falciparum alpha-1 tubulin expressed in Escherichia coli BL21 assessed as thermo-stabilization incubated at 4 to 80 degreeC for 3 mins followed by 5 mins incubation at room temperature by thermal shift assay; conditions: time 8.0 min
Plasmodium falciparum [17] = assay: Antiplasmodial activity against Plasmodium falciparum 3D7; type: functional, organism-based
[18] = Cytotoxicity against human U-937 cells; type: toxicity, cell-based
Plasmodium falciparum [19] = assay: (§1) Antiplasmodial activity against synchronized ring stage Plasmodium falciparum 3D7 infected in human RBC assessed as reduction in parasitemia percentage by measuring defect in invasion stage at IC50 concentration measured after 60 hrs by giemsa staining based light microscopic analysis; type: functional, organism-based
Plasmodium falciparum [20] = assay: Antiplasmodial activity against synchronized ring stage Plasmodium falciparum 3D7 infected in human RBC assessed as reduction in parasitemia percentage by measuring defect in egress stage at IC50 concentration measured after 60 hrs by giemsa staining based light microscopic analysis; type: functional, organism-based
Plasmodium falciparum [21] = assay: Synergistic antimalarial activity against synchronized ring stage Plasmodium falciparum 3D7 infected in human RBC assessed as mean fractional inhibitory concentration at 2:3 ratio of ART to compound incubated for 72 hrs by giemsa staining based flow cytometric analysis; type: functional
Plasmodium falciparum [22] = assay: Synergistic antimalarial activity against synchronized ring stage Plasmodium falciparum 3D7 infected in human RBC assessed as mean fractional inhibitory concentration at 1:4 ratio of ART to compound incubated for 72 hrs by giemsa staining based flow cytometric analysis; type: functional
Plasmodium berghei [23] = assay: Antimalarial activity against Plasmodium berghei ANKA in BALB/c mouse injected with parasite infected erythrocytes assessed as decrease in parasite load at 30 mg/kg, ip administered daily for 7 days relative to control; type: functional; set-up: scale not given: the % may be the effect or the level left; conditions: time 7 day
Plasmodium berghei [24] = assay: Antimalarial activity against Plasmodium berghei ANKA in BALB/c mouse injected with parasite infected erythrocytes assessed as reduction in parasitemia at 30 mg/kg, ip administered daily for 7 days and measured after 15 days; type: functional, organism-based; conditions: time 15.0 day
Plasmodium berghei [25] = assay: Antimalarial activity against Plasmodium berghei ANKA in BALB/c mouse injected with parasite infected erythrocytes assessed as […] mean survival time at 30 mg/kg, ip administered daily for 7 days and measured after 15 days; type: functional; conditions: time 15 day
Plasmodium falciparum [26] = assay: Antiplasmodial activity against […] incubated for 90 hrs by SYBR green I dye based analysis; type: functional, organism-based; conditions: 3D7, 90 h
[27] = Cytotoxicity against human U-937 cells assessed as reduction in cell viability incubated for 24 hrs by MTT assay; type: toxicity, cell-based
Plasmodium falciparum [28] = assay: as §1, with “transformation into pyknotic trophozoites” for “parasitemia percentage”, “delay” for “defect”, “ring maturation” for “invasion stage”; type: functional, organism-based

Cc1ccc2c(c1)C(=O)N([C@H](CC(C)C)c1nc3ccccc3n1Cc1cn(-c3ccc(F)cc3)nn1)C2=O
inhibition at 1 µM (Plasmodium falciparum [1]): 0.3%
inhibition at 10 µM (Plasmodium falciparum [2]): 46%

CCC(C)[C@H](c1nc2ccccc2n1Cc1cn(-c2ccc(F)cc2)nn1)N1C(=O)c2ccc(C)cc2C1=O (stereo partly specified)
IC50 [3]: > 100000 nM
inhibition at 1 µM (Plasmodium falciparum [1]): 20%
inhibition at 10 µM (Plasmodium falciparum [2]): 64%
IC50 (Plasmodium falciparum [4]): 2200 nM
IC50 (Plasmodium falciparum [5]): 3430 nM
Activity (Plasmodium falciparum [6]): Dose dependent effect
Activity (Erythrocyte): Non-Toxic
selectivity ratio [7]: 46
Activity [8]: Non-Toxic
selectivity ratio [9]: > 800
Activity (Plasmodium falciparum [10]): Active
Activity (Plasmodium falciparum [11]): Active
Activity (Plasmodium falciparum [12]): Active
Activity (Plasmodium falciparum [13]): 5.56
Activity (Plasmodium falciparum [14]): inactive
Activity (Plasmodium falciparum [15]): inactive
Activity (Plasmodium falciparum [16]): Active

CC(C)[C@H](c1nc2ccccc2n1Cc1cn(-c2ccc(F)cc2F)nn1)N1C(=O)c2ccccc2C1=O
inhibition at 1 µM (Plasmodium falciparum [1]): -12%
inhibition at 10 µM (Plasmodium falciparum [2]): 88%

CCC(C)[C@H](c1nc2ccccc2n1Cc1cn(-c2ccc(F)cc2)nn1)N1C(=O)c2ccccc2C1=O (stereo partly specified)
IC50 (Plasmodium falciparum [17]): 900 nM
CC50 [18]: 28800 nM

Cc1ccc2c(c1)C(=O)N([C@H](CC(C)C)c1nc3ccccc3n1Cc1cn(-c3ccc(Cl)cc3)nn1)C2=O
IC50 (Plasmodium falciparum [17]): 640 nM
IC50 [3]: > 100000 nM
inhibition at 1 µM (Plasmodium falciparum [1]): 43%
inhibition at 10 µM (Plasmodium falciparum [2]): 73%
IC50 (Plasmodium falciparum [4]): 740 nM
IC50 (Plasmodium falciparum [5]): 1710 nM
Activity (Plasmodium falciparum [6]): Dose dependent effect
Activity (Erythrocyte): Non-Toxic
selectivity ratio [7]: > 135
Activity [8]: Non-Toxic
Activity (Plasmodium falciparum [19]): Active
Activity (Plasmodium falciparum [20]): Active
Activity (Plasmodium falciparum [11]): Active
Activity (Plasmodium falciparum [12]): Active
Activity (Plasmodium falciparum [13]): 4.62
FIC (Plasmodium falciparum [21]): 0.87
FIC (Plasmodium falciparum [22]): 0.98
Activity (Plasmodium falciparum [14]): inactive
Activity (Plasmodium falciparum [15]): inactive
Activity (Plasmodium falciparum [16]): Active
Activity (Plasmodium berghei [23]): 3.6%
Activity (Plasmodium berghei [24]): Active
MST (Plasmodium berghei [25]): 11.07 days

Cc1ccc(-n2cc(Cn3c([C@@H](CC(C)C)N4C(=O)c5ccc(C)cc5C4=O)nc4ccccc43)nn2)cc1
inhibition at 1 µM (Plasmodium falciparum [1]): -8.63%
inhibition at 10 µM (Plasmodium falciparum [2]): 68.9%

COc1ccc(-n2cc(Cn3c([C@@H](CC(C)C)N4C(=O)c5ccc(C)cc5C4=O)nc4ccccc43)nn2)cc1
inhibition at 1 µM (Plasmodium falciparum [1]): -43%
inhibition at 10 µM (Plasmodium falciparum [2]): 65%

CC(C)C(c1nc2ccccc2n1Cc1cn(-c2ccc(F)cc2)nn1)N1C(=O)c2ccccc2C1=O (stereo unspecified)
IC50 (Plasmodium falciparum [26]): 3500 nM
CC50 at 24 h [27]: 780 nM

CCC(C)[C@H](c1nc2ccccc2n1Cc1cn(Cc2ccccc2)nn1)N1C(=O)c2ccccc2C1=O (stereo partly specified)
IC50 [3]: > 100000 nM
inhibition at 1 µM (Plasmodium falciparum [1]): 35%
inhibition at 10 µM (Plasmodium falciparum [2]): 66%
IC50 (Plasmodium falciparum [4]): 810 nM
IC50 (Plasmodium falciparum [5]): 1880 nM
Activity (Plasmodium falciparum [6]): Dose dependent effect
Activity (Erythrocyte): Non-Toxic
selectivity ratio [7]: 123
Activity [8]: Non-Toxic
Activity (Plasmodium falciparum [28]): Active
Activity (Plasmodium falciparum [11]): Active
Activity (Plasmodium falciparum [12]): Active
FIC (Plasmodium falciparum [22]): 0.67

CCC(C)[C@H](c1nc2ccccc2n1Cc1cn(-c2ccc(F)cc2F)nn1)N1C(=O)c2ccc(C)cc2C1=O (stereo partly specified)
inhibition at 1 µM (Plasmodium falciparum [1]): 21%
inhibition at 10 µM (Plasmodium falciparum [2]): 94%

CCC(C)[C@H](c1nc2ccccc2n1Cc1cn(-c2ccccc2F)nn1)N1C(=O)c2ccccc2C1=O (stereo partly specified)
inhibition at 1 µM (Plasmodium falciparum [1]): 8%
inhibition at 10 µM (Plasmodium falciparum [2]): 87%

CC(C)C[C@H](c1nc2ccccc2n1Cc1cn(-c2ccc(C(F)(F)F)cc2)nn1)N1C(=O)c2ccccc2C1=O
inhibition at 1 µM (Plasmodium falciparum [1]): -53%
inhibition at 10 µM (Plasmodium falciparum [2]): 88%
